In patent US7511077B2, “Diamine calcium channel blockers” (Neuromed Pharmaceuticals Ltd., priority 2005, dated 2009):
Where two headings read alike, the source gives them in different places.

How the values were obtained:
[1] = biological target: T1, human α1G T-type channels (Homo sapiens, UniProt O43497); test: T-type calcium channel block, patch clamp in HEK cell lines; format: cell-based
T1 construct: expressed in transfected cells; host or cells: HEK cell lines
Procedure: Standard patch-clamp techniques were employed to identify blockers of T-type currents. Briefly, previously described HEK cell lines stably expressing human α1G T-type channels were used for all the recordings (passage #: 4-20, 37° C., 5% CO2). To obtain T-type currents, plastic dishes containing semi-confluent cells were positioned on the stage of a ZEISS AXIOVERT S100 microscope after replacing the culture medium with external solution (see below). Whole-cell patches were obtained using pipettes (borosilicate glass with filament, O.D.: 1.5 mm, I.D.: 0.86 mm, 10 cm length), fabricated on a SUTTER P-97 puller with resistance values of ˜5 MΩ (see below for internal solution).
T-type currents were reliably obtained by using two voltage protocols: • (1) “non-inactivating”, and (2) “inactivation”
In the non-inactivating protocol, the holding potential is set at −110 mV and with a pre-pulse at −100 mV for 1 second prior to the test pulse at −40 mV for 50 ms. In the inactivation protocol, the pre-pulse is at approximately −85 mV for 1 second, which inactivates about 15% of the T-type channels.
Test compounds were dissolved in external solution, 0.1-0.01% DMSO. After ˜10 min rest, they were applied by gravity close to the cell using a WPI microfil tubing. The “non-inactivated” pre-pulse was used to examine the resting block of a compound. The “inactivated” protocol was employed to study voltage-dependent block. However, the initial data shown below were mainly obtained using the non-inactivated protocol only. IC50 values are shown for various compounds of the invention in Table 5.

[2] = biological target: T2, rat brain N-type calcium channel subunits (α1B+α2δ+β1b cDNA subunits) (Rattus norvegicus, UniProt Q02294); test: N-type calcium channel block, whole cell patch clamp in HEK 293 cells; format: cell-based; conditions: holding potential −80 mV to +10 mV
T2 construct: expressed in transfected cells; host or cells: HEK 293
T2 sequence (Q02294 whole entry): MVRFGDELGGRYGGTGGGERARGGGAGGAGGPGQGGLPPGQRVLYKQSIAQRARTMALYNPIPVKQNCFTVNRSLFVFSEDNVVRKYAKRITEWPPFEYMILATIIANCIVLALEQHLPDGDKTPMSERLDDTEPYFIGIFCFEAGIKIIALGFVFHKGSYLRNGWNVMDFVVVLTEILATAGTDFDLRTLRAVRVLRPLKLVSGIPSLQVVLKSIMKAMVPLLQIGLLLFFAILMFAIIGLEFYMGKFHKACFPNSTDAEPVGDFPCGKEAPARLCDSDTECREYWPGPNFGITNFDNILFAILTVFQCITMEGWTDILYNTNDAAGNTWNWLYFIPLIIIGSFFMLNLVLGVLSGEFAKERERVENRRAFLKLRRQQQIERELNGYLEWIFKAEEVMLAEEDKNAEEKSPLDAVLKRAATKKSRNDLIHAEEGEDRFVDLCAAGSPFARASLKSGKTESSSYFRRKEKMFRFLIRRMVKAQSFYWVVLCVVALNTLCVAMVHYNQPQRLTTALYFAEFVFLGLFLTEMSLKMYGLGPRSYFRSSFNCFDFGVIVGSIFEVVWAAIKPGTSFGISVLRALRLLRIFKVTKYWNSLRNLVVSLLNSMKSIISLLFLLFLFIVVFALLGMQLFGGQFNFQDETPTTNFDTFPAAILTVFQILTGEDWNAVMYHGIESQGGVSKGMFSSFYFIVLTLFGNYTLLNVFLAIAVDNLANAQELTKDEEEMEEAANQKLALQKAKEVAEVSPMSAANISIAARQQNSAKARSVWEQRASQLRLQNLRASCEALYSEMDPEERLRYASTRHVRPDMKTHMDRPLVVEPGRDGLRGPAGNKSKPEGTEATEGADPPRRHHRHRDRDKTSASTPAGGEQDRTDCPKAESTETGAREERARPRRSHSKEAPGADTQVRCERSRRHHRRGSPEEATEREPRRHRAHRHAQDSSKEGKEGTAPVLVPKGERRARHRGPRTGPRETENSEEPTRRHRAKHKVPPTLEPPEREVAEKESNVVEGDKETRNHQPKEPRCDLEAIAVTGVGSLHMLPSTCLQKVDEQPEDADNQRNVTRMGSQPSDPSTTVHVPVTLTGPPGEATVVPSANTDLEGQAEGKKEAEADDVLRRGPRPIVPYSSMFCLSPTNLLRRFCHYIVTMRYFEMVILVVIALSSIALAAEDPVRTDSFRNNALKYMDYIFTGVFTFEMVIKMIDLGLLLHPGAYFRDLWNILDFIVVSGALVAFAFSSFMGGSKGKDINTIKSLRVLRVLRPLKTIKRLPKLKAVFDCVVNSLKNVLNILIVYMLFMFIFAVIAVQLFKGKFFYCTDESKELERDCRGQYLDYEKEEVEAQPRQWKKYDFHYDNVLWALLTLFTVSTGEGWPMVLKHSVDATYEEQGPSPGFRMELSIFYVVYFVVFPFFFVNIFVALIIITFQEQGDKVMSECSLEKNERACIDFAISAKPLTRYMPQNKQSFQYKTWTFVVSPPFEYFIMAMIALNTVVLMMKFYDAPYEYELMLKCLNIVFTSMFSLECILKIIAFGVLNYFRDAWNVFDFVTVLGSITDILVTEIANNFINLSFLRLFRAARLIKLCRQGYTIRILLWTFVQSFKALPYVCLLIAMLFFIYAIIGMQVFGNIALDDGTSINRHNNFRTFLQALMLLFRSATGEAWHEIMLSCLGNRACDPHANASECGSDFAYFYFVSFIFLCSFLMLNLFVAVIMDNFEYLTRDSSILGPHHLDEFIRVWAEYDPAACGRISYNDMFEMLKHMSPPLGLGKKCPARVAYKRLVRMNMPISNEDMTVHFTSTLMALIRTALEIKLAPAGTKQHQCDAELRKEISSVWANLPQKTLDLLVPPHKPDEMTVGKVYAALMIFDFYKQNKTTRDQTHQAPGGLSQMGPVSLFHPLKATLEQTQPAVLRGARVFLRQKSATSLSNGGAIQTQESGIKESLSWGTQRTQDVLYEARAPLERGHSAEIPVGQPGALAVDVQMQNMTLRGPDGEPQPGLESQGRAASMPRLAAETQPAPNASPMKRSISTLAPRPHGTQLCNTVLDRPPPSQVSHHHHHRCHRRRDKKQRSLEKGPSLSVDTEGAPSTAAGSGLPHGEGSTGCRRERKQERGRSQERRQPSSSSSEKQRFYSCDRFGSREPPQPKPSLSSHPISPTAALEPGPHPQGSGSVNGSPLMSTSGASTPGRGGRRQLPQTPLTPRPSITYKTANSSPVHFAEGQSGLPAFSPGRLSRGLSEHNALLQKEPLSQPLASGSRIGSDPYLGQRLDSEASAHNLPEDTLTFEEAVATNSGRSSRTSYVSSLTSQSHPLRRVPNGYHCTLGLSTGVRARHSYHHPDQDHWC
Procedure: N-type calcium channel blocking activity was assayed in human embryonic kidney cells, HEK 293, stably transfected with the rat brain N-type calcium channel subunits (α1B+α2δ+β1b cDNA subunits). Alternatively, N-type calcium channels (α1B+α2δ+β1b cDNA subunits), L-type channels (α1C+α2δ+β1b cDNA subunits) and P/Q-type channels (α1A+α2δ+β1b cDNA subunits) were transiently expressed in HEK 293 cells. Briefly, cells were cultured in Dulbecco's modified eagle medium (DMEM) supplemented with 10% fetal bovine serum, 200 U/ml penicillin and 0.2 mg/ml streptomycin at 37° C. with 5% CO2. At 85% confluency cells were split with 0.25% trypsin/1 mM EDTA and plated at 10% confluency on glass coverslips. At 12 hours the medium was replaced and the cells transiently transfected using a standard calcium phosphate protocol and the appropriate calcium channel cDNA's. Fresh DMEM was supplied and the cells transferred to 28° C./5% CO2. Cells were incubated for 1 to 2 days prior to whole cell recording.
Whole cell patch clamp experiments were performed using an Axopatch 200B amplifier (Axon Instruments, Burlingame, Calif.) linked to a personal computer equipped with pCLAMP software. The external and internal recording solutions contained, respectively, 5 mM BaCl2, 10 mM MgCl2, 10 mM HEPES, 40 mM TEACl, 10 mM glucose, 87.5 mM CsCl (pH 7.2) and 108 mM CsMS, 4 mM MgCl2, 9 mM EGTA, 9 mM HEPES (pH 7.2). Currents were typically elicited from a holding potential of −80 mV to +10 mV using Clampex software (Axon Instruments). Typically, currents were first elicited with low frequency stimulation (0.067 Hz) and allowed to stabilize prior to application of the compounds. The compounds were then applied during the low frequency pulse trains for two to three minutes to assess tonic block, and subsequently the pulse frequency was increased to 0.2 Hz to assess frequency dependent block. Data were analyzed using Clampfit (Axon Instruments) and SigmaPlot 4.0 (Jandel Scientific).

[3] = test system: Rings from Rat Mesenteric Artery maximally pre-contracted with PE; test: Relaxation of pre-contracted rings from rat mesenteric artery; conditions: compound at 10^−5 M, rings maximally pre-contracted with PE at 10^−4 M, read-out: Mesenteric artery Max % relax
Procedure: Sprague-Dawley rats (350-400 g, Charles River Canada) were anaesthetized with sodium pentobarbital (60 mg/kg). The mesenteric arteries were removed and suspended in a tissue bath filled with Krebs-Henseleit solution aerated with 95% O2 and 5% CO2 at 37° C. The tissues were equilibrated for one hour prior to the construction of a concentration-response curve to phenylephrine (PE). Following recovery of the response to PE, a second curve to PE was constructed at 5 min after the addition of a calcium channel blocker (n=2-8, each from a separate rat) or the vehicle (50 μl of equimolar DMSO). After recovery, a third and fourth curve to PE were constructed after addition of a higher concentration of blocker or vehicle. The protocol was repeated using portal veins (n=4, each from a separate rat).

[4] = test system: Rings from Rat Portal Vein maximally pre-contracted with PE; test: Relaxation of pre-contracted rings from rat portal vein; conditions: compound at 10^−5 M, rings maximally pre-contracted with PE at 10^−4 M, read-out: Portal vein Max % relax
[5] = non-inactivating protocol, pre-pulse −100 mV (resting block), read-out: IC50 @ −100 mV
[6] = −80 mV (inactivation protocol, voltage-dependent block), read-out: IC50 @ −80 mV
[7] = low frequency stimulation 0.067 Hz (tonic block), read-out: IC50 @ 0.067 Hz
[8] = pulse frequency 0.2 Hz (frequency dependent block), read-out: IC50 @ 0.2 Hz

T1 sequence (O43497 whole entry): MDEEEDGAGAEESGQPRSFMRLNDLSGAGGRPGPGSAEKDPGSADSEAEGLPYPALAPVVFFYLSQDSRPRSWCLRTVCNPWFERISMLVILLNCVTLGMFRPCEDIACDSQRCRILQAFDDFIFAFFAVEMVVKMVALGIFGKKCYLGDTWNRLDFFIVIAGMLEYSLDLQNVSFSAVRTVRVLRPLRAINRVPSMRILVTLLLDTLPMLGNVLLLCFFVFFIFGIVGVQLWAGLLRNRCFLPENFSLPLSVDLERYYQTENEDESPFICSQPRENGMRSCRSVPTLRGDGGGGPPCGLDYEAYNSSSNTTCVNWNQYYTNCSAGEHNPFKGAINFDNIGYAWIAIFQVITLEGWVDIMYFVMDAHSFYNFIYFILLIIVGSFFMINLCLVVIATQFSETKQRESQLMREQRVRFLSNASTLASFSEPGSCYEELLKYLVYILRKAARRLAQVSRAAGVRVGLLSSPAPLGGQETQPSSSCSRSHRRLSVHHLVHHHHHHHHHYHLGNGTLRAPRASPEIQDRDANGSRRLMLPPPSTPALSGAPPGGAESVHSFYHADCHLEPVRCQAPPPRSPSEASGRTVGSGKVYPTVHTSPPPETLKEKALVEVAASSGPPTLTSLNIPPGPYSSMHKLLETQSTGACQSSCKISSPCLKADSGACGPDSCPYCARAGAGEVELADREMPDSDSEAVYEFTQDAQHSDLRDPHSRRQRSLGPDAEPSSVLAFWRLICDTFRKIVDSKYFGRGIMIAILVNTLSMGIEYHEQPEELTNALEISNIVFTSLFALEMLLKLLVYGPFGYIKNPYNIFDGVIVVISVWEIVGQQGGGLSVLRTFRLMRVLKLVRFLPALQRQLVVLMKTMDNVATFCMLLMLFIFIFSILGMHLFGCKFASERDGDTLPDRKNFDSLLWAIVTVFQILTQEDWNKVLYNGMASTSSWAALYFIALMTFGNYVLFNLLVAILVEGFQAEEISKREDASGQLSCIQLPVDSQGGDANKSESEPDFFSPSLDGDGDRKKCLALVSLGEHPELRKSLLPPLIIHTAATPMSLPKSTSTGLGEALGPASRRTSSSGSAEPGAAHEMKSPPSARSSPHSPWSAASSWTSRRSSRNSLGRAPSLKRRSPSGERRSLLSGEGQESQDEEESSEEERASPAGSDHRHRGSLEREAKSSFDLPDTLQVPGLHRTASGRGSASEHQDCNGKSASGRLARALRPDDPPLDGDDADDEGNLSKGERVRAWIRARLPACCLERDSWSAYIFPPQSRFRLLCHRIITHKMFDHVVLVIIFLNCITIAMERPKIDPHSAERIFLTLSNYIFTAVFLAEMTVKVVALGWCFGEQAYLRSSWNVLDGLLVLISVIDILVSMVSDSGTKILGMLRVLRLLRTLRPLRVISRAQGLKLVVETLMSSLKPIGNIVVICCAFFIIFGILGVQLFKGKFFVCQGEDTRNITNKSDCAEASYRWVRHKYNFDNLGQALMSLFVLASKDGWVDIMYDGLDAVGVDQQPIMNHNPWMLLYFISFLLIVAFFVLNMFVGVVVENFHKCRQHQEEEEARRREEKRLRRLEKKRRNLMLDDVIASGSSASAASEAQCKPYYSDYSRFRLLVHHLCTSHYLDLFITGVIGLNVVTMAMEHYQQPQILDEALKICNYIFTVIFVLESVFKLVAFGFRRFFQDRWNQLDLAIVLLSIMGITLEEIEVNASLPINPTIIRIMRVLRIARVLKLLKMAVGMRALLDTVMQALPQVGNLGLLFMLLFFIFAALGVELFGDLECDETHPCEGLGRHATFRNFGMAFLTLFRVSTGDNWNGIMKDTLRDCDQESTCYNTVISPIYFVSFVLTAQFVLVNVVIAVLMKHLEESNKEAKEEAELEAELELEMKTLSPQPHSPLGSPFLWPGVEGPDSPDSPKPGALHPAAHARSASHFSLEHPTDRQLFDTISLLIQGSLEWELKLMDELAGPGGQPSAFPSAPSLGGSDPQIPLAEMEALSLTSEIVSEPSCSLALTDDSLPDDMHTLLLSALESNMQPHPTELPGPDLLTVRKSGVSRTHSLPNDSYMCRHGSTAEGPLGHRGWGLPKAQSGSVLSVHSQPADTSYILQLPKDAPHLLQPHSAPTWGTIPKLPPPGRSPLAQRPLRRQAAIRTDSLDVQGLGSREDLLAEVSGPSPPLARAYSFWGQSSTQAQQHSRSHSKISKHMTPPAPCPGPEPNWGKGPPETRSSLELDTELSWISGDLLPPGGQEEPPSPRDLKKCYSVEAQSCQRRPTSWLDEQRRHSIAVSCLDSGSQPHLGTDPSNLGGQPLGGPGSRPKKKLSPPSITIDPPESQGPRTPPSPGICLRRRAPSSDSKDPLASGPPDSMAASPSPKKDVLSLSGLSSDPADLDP

O=C(CCCCC(c1ccc(F)cc1)c1ccc(F)cc1)NC/C=C/CNC(=O)c1cc(C(F)(F)F)cc(C(F)(F)F)c1 [Compound P15, N-{(E)-4-[6,6-Bis-(4-fluoro-phenyl)-hexanoylamino]-but-2-enyl}-3,5-bis-trifluoromethyl-benzamide]
IC50 [1, 5]: 54 nM
IC50 [1, 6]: 21 nM
IC50 [2, 7]: 19 nM
IC50 [2, 8]: 127 nM
Emax at 10 µM [3]: 9%

CC(C)(C)c1ccc(C(=O)NCC#CCNC(=O)CCCCC(c2ccc(F)cc2)c2ccc(F)cc2)cc1 [Compound P24, N-{4-[6,6-Bis-(4-fluoro-phenyl)-hexanoylamino]-but-2-ynyl}-4-tert-butyl-benzamide]
Emax at 10 µM [3]: 0%

CC(C)c1ccc(C(=O)NCCCCNC(=O)CCCCC(c2ccc(F)cc2)c2ccc(F)cc2)cc1 [Compound P37, N-{4-[6,6-Bis-(4-fluoro-phenyl)-hexanoylamino]-butyl}-4-isopropyl-benzamide]
IC50 [1, 5]: 31 nM
IC50 [1, 6]: 8 nM
IC50 [2, 7]: 310 nM
IC50 [2, 8]: 300 nM
Emax at 10 µM [4]: 51%
Emax at 10 µM [3]: 42%

O=C(CCCCC(c1ccc(F)cc1)c1ccc(F)cc1)NC/C=C\CNC(=O)c1ccc(F)cc1 [Compound P10, N-{(Z)-4-[6,6-Bis-(4-fluoro-phenyl)-hexanoylamino]-but-2-enyl}-4-fluoro-benzamide]
IC50 [1, 5]: 20 nM
IC50 [1, 6]: 6 nM
IC50 [2, 7]: 182 nM
IC50 [2, 8]: 112 nM
Emax at 10 µM [4]: 38%
Emax at 10 µM [3]: 35%

CC(C)(C)c1ccc(C(=O)NC/C=C\CNC(=O)CCCCC(c2ccc(F)cc2)c2ccc(F)cc2)cc1 [Compound P4, N-{(Z)-4-[6,6-Bis-(4-fluoro-phenyl)-hexanoylamino]-but-2-enyl}-4-tert-butyl-benzamide]
IC50 [1, 5]: 38 nM
IC50 [1, 6]: 12 nM
IC50 [2, 7]: 86 nM
IC50 [2, 8]: 59 nM
Emax at 10 µM [3]: 8%

O=C(CC(c1ccccc1)c1ccccc1)NCC#CCN(Cc1ccccn1)Cc1ccccn1 [Compound P32, N-[4-(Bis-pyridin-2-ylmethyl-amino)-but-2-ynyl]-3,3-diphenyl-propionamide]
IC50 [1, 5]: 1800 nM
IC50 [1, 6]: 1100 nM
IC50 [2, 7]: 2200 nM
IC50 [2, 8]: 568 nM
Emax at 10 µM [4]: 49%
Emax at 10 µM [3]: 50%

O=C(CCCCC(c1ccc(F)cc1)c1ccc(F)cc1)NC/C=C\CNC(=O)COc1ccc(Cl)cc1 [Compound P6, 6,6-Bis-(4-fluoro-phenyl)-hexanoic acid{(Z)-4-[2-(4-chloro-phenoxy)-acetylamino]-but-2-enyl}-amide]
IC50 [1, 5]: 128 nM
IC50 [1, 6]: 67 nM
IC50 [2, 7]: 58 nM
IC50 [2, 8]: 27 nM
Emax at 10 µM [4]: 28%
Emax at 10 µM [3]: 35%

COc1ccc(C(=O)NCC#CCNC(=O)CCCCC(c2ccc(F)cc2)c2ccc(F)cc2)cc1 [Compound P27, N-{4-[6,6-Bis-(4-fluoro-phenyl)-hexanoylamino]-but-2-ynyl}-4-methoxy-benzamide]
Emax at 10 µM [4]: 51%
Emax at 10 µM [3]: 41%

O=C(CCCCC(c1ccc(F)cc1)c1ccc(F)cc1)NC/C=C\CNC(=O)c1cc(C(F)(F)F)cc(C(F)(F)F)c1 [Compound P5, N-{(Z)-4-[6,6-Bis-(4-fluoro-phenyl)-hexanoylamino]-but-2-enyl}-3,5-bis-trifluoromethyl-benzamide]
IC50 [1, 5]: 27 nM
IC50 [1, 6]: 7 nM
IC50 [2, 7]: 74 nM
IC50 [2, 8]: 46 nM
Emax at 10 µM [3]: 10%

Cc1ccc(C(=O)NCC#CCNC(=O)CCCCC(c2ccc(F)cc2)c2ccc(F)cc2)cc1 [Compound P26, N-{4-[6,6-Bis-(4-fluoro-phenyl)-hexanoylamino]-but-2-ynyl}-4-methyl-benzamide]
IC50 [1, 5]: 336 nM
IC50 [1, 6]: 202 nM
IC50 [2, 7]: 144 nM
IC50 [2, 8]: 40 nM
Emax at 10 µM [4]: 34%
Emax at 10 µM [3]: 40%

COc1c(C(C)(C)C)cc(C(=O)NCC#CCNC(=O)CCCCC(c2ccc(F)cc2)c2ccc(F)cc2)cc1C(C)(C)C [Compound P23, N-{4-[6,6-Bis-(4-fluoro-phenyl)-hexanoylamino]-but-2-ynyl}-3,5-di-tert-butyl-4-methoxy-benzamide]
Emax at 10 µM [3]: 0%
